Results reported in the NIST ThermoML archive (doi:10.1007/s10765-015-2006-0).

Key:
[1] = mn = molality of the nth substance listed, in mol/kg; conditions: 101 kPa, Liquid, Frequency=3 MHz, Sing-around technique in a fixed-path interferometer
[2] = 101 kPa, Liquid, Frequency=3 MHz, Sing-around technique in a fixed-path interferometer

NCC(=O)O [2-aminoacetic acid] + O
speed of sound [m/s], [1]
Conditions	m1 = 0.01207	m1 = 0.0523	m1 = 0.1037	m1 = 0.2037	m1 = 0.3068	m1 = 0.4124	m1 = 0.5028	m1 = 0.6058	m1 = 0.6829	m1 = 0.82
288.15 K	1467.2	1470.1	1472.3	1477.8	1483.4	1488.7	1494.5	1499.2	1503.4	1510.2
298.15 K	1497.7	1500.1	1502.3	1507.2	1512.4	1517.8	1523	1527.3	1531.3	1537.7
308.15 K	1520	1522.9	1524.7	1529.7	1534.6	1539.7	1543.8	1548.7	1552.5	1558.6
318.15 K	1537.2	1538.9	1541.1	1545.8	1551.4	1555.4	1560.2	1564.1	1567.7	1573.5

C[C@H](N)C(=O)O [(S)-2-aminopropanoic acid] + O
speed of sound [m/s], [1]
Conditions	m1 = 0.00939	m1 = 0.04689	m1 = 0.09896	m1 = 0.2003	m1 = 0.2979	m1 = 0.3997	m1 = 0.4941	m1 = 0.6099	m1 = 0.6973	m1 = 0.7978
288.15 K	1467.6	1469.9	1472.8	1480.3	1487.3	1494.3	1500.3	1509.5	1513.3	1520
298.15 K	1497.9	1499.8	1502.8	1509.6	1515.9	1522.7	1528	1536.7	1540.4	1546.2
308.15 K	1520.8	1522.7	1525.5	1531.8	1537.9	1544	1549	1556.8	1560.7	1566
318.15 K	1537	1539.2	1542	1547.9	1553.2	1558.7	1564.1	1571.4	1574.7	1611.9

CC(C)[C@H](N)C(=O)O [L-valine] + O
speed of sound [m/s], [1]
Conditions	m1 = 0.00555	m1 = 0.02398	m1 = 0.03504	m1 = 0.05824	m1 = 0.07873	m1 = 0.09938	m1 = 0.2068	m1 = 0.2992	m1 = 0.4017
288.15 K	1467.4	1467.3	1469.7	1469.6	1472.8	1474.8	1477	1488.4	1497.2
298.15 K	1497.5	1497.4	1499.6	1499.7	1502.4	1504.4	1506.2	1516.6	1524.8
308.15 K	1520.4	1520.4	1522	1522.6	1525	1526.9	1528.2	1537.8	1545.2
318.15 K	1537.1	1537.4	1538.7	1539	1541.2	1542.7	1544.4	1552.5	1560.4

O=C([O-])CC(O)(CC(=O)[O-])C(=O)[O-].[NH4+].[NH4+].[NH4+] [ammonium 2-hydroxypropane-1,2,3-tricarboxylate] + O
speed of sound [m/s], [1]
Conditions	288.15 K	298.15 K	308.15 K	318.15 K
m1 = 0.2	1503.6	1532.2	1553.8	1569
m1 = 0.4	1540.7	1567.5	1587.7	1602.1
m1 = 0.6	1578.5	1603.3	1622	1635.2
m1 = 0.8	1615.6	1638.6	1655.7	1667.6

O [water]
[2]
Conditions	speed of sound [m/s]
288.15 K	1463.1
298.15 K	1495.8
308.15 K	1519.1
